1 molecule from patent US12202801B1 (priority 2023, dated 2025) can be followed below.

The subject of this assay is Mycobacterium tuberculosis H37Rv. The experiment in a line: Resazurin Microplate Assay (REMA), anti-tubercular activity, H37Rv strain. It is filed as cell-based. As to conditions: 192 h, read-out: Anti-tubercular activity against Mycobacterium tuberculosis (MIC), H37Rv. Background: Alamar Blue is a resazurin reagent that responds to reducing activity.

Each structure is given as a SMILES string.

For the molecule `N#Cc1ccc(C(=O)C[n+]2ccc(C#N)cc2)cc1.[Br-]` [Compound 3f, 4-Cyano-1-(2-(4-cyanophenyl)-2-oxoethyl)pyridin-1-ium bromide], the MIC stood at 1 µg/mL.

For orientation: MIC means the smallest concentration in the dilution series that meets the test's criterion for growth inhibition.
